Measurements as given in US20250136570A1 (Tango Therapeutics, Inc., priority 2021, published 2025).

What was measured:
[1] = target: HDAC3/NCor2 (Homo sapiens (Human), UniProt O15379); assay: HDAC3 inhibition, Fluor de Lys fluorescent enzyme assay; format: biochemical; conditions: 3 hours pre-incubation at room temp; 1.2 nM enzyme; 16 μM Fluor de Lys substrate; duplicate
From the text: (§1) Recombinant HDAC1 (cat #: 50051) and HDAC3/NCor2 (cat #: 50003) enzymes were purchased from BPS Bioscience (San Diego, CA, US). Assay reagents for the detection of HDAC enzyme activity (Fluor de Lys®—Green substrate and Developer kits) were purchased from Enzo Life Science (Farmingdale, NY, US). Plates used to conduct the enzyme reaction were Proxiplate-384 (cat #: 6008280) Plus from PerkinElmer (Waltham, MA, US). TSA, an HDAC inhibitor, was purchased from Enzo Life Science (cat #BML-GR309-9090) The remainder of the reagents used to prepare the assay buffer were purchased from Sigma-Aldrich (St Louis, MO, US). Unless stated otherwise, HDAC1 and 3 assays were conducted in 50 mM Tris buffer, pH 8, 137 mM NaCl, 2.7 mM KCl, 0.01% BSA.
(§2) IC50 determination for HDAC1 and HDAC3—Prior to adding reagents, 50 nL/well of compound were added to Proxiplates using an Echo dispenser instrument (Beckman Coulter, CA, US). After addition of compound, 2.5 μL/well of 2× enzyme solution was added and the enzyme was pre-incubated with compound for 3 hours at room temp. (˜22° C.). After the pre-incubation period, the enzyme reaction was initiated by adding 2.5 μL/well of 2× Fluor de Lys® substrate solution. The assay reaction was stopped after one hour by adding 5 μl/well of a 0.66× Developer solution containing TSA (3.2 μM). The final product of the enzyme reaction was read using a Spectramax plate reader instrument (Molecular Devices, CA, US) using a fluorescent readout (Ex 360 nm/Em 460 nm). The final enzyme concentrations in the assay buffer for HDAC1 and 3 were 6 and 1.2 nM, respectively. The final Fluor de Lys® substrate concentration in the assay buffer was 16 μM for all HDAC enzymes. IC50 values were determined using the following equation: […]
(§3) Where Efree and Eo are the free and total amount of HDAC enzyme in the reaction mixture, n is the hill coefficient, I is the free inhibitor concentration, and IC50 is the measure of the potency equivalent to the inhibitor concentration that leads to a 50% occupancy of the total enzyme. Each data was generated in duplicate.

[2] = target: Recombinant HDAC1 (Homo sapiens (Human), UniProt Q13547); assay: HDAC1 inhibition, Fluor de Lys fluorescent enzyme assay; format: biochemical; conditions: 3 hours pre-incubation at room temp; 6 nM enzyme; 16 μM Fluor de Lys substrate; duplicate
From the text: as §1, §2, §3

HDAC3/NCor2, sequence (O15379 whole entry): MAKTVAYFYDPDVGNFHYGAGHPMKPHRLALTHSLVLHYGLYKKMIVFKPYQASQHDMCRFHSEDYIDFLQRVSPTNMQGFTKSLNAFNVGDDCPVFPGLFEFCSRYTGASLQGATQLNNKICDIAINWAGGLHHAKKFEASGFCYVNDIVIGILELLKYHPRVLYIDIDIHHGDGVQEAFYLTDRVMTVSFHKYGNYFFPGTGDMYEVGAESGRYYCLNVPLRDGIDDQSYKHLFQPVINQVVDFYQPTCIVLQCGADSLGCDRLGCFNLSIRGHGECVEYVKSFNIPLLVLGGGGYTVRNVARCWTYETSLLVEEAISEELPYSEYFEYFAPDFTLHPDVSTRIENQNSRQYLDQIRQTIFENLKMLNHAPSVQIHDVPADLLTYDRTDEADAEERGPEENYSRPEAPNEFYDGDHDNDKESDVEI
HDAC3/NCor2, sequence (Q9Y618 395-489 partner): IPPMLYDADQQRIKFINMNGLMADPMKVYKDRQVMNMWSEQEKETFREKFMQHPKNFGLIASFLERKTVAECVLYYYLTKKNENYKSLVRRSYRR
Recombinant HDAC1, sequence (Q13547 whole entry): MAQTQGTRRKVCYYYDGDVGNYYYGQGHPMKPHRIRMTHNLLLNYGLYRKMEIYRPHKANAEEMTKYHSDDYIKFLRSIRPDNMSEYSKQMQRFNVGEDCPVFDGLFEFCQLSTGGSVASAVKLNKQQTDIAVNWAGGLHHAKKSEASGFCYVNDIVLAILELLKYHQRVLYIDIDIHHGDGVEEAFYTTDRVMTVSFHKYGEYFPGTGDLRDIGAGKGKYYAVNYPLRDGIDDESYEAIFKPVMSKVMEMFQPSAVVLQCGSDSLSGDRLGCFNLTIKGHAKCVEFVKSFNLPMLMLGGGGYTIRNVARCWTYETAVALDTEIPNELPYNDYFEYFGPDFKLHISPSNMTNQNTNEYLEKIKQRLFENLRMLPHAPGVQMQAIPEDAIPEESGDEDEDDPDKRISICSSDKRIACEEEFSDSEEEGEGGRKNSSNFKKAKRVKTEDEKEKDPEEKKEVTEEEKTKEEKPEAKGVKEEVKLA

IC50 [1] [nM]	IC50 [2] [nM]	Structure (SMILES)
500 to 2000	< 100	N=S(=O)(c1ccc(C(=O)Nc2cc(-c3ccc(F)cc3)ccc2N)cc1)c1ccc(F)c(F)c1 (stereo not drawn) [Compound 221, N-[2-amino-5-(4-fluorophenyl)phenyl]-4-[(3,4-difluorophenyl)sulfonimidoyl]benzamide]
500 to 2000	< 100	C[S@@](=N)(=O)c1ccc(C(=O)Nc2cc(-c3ccc(F)cc3)ccc2N)cc1 [Compound 132, (R)—N-[2-amino-5-(4-fluorophenyl)phenyl]-4-(methylsulfonimidoyl)benzamide]
500 to 2000	< 100	Cc1cccc(S(=N)(=O)c2ccc(C(=O)Nc3cc(-c4ccc(F)cc4)ccc3N)cc2)n1 (stereo not drawn) [Compound 215, N-[2-amino-5-(4-fluorophenyl)phenyl]-4-[(6-methyl-2-pyridyl)sulfonimidoyl]benzamide]
> 2000	< 100	Nc1ccc(-c2ccc(F)cc2)cc1NC(=O)c1ccc([S@@]2(=O)=N[C@@H](c3ccccc3)CC2)cc1 (racemic) [Compound 229, rac-N-(4-amino-4′-fluoro-[1,1′-biphenyl]-3-yl)-4-((1R,3R)-1-oxido-3-phenyl-4,5-dihydro-3H-1λ^6-isothiazol-1-yl)benzamide]
500 to 2000	< 100	Cc1ccc(S(=N)(=O)c2ccc(C(=O)Nc3cc(-c4ccc(F)cc4)ccc3N)cc2)cn1 (stereo not drawn) [Compound 233, N-[2-amino-5-(4-fluorophenyl)phenyl]-4-[(6-methyl-3-pyridyl)sulfonimidoyl]benzamide]
500 to 2000	< 100	N=[S@](=O)(c1ccc(C(=O)Nc2cc(-c3ccc(F)cc3)ccc2N)cc1)c1ccccn1 (single isomer, unassigned) [Compound 220]
500 to 2000	< 100	CS(=N)(=O)C1(c2ccc(C(=O)Nc3cc(-c4ccc(F)cc4)ccc3N)cc2)CC1 (stereo not drawn) [Compound 251, N-[2-amino-5-(4-fluorophenyl)phenyl]-4-[1-(methylsulfonimidoyl)cyclopropyl]benzamide]
500 to 2000	< 100	Cc1cncc(S(=N)(=O)c2ccc(C(=O)Nc3cc(-c4ccc(F)cc4)ccc3N)cc2)c1 (stereo not drawn) [Compound 199, N-[2-amino-5-(4-fluorophenyl)phenyl]-4-[(5-methyl-3-pyridyl)sulfonimidoyl]benzamide]
500 to 2000	< 100	N=S(=O)(c1ccc(C(=O)Nc2cc(-c3ccc(F)cc3)ccc2N)cc1)c1ccc(CO)nc1 (stereo not drawn) [Compound 208]
500 to 2000	< 100	Cc1ncccc1S(=N)(=O)c1ccc(C(=O)Nc2cc(-c3ccc(F)cc3)ccc2N)cc1 (stereo not drawn) [Compound 190, N-[2-amino-5-(4-fluorophenyl)phenyl]-4-[(2-methyl-3-pyridyl)sulfonimidoyl]benzamide]
500 to 2000	< 100	N=S(=O)(c1ccc(C(=O)Nc2cc(-c3ccc(F)cc3)ccc2N)cc1)c1cccc(F)c1 (stereo not drawn) [Compound 216, N-[2-amino-5-(4-fluorophenyl)phenyl]-4-[(3-fluorophenyl)sulfonimidoyl]benzamide]
500 to 2000	< 100	CCS(=N)(=O)c1ccc(C(=O)Nc2cc(-c3ccc(F)cc3)ccc2N)cc1 (stereo not drawn) [Compound 194, N-[2-amino-5-(4-fluorophenyl)phenyl]-4-(ethylsulfonimidoyl)benzamide]
100 to 500	< 100	CS(=O)(=NC1CC1)c1ccc(C(=O)Nc2cc(-c3ccc(F)cc3)ccc2N)cc1 (stereo not drawn) [Compound 163, N-[2-amino-5-(4-fluorophenyl)phenyl]-4-(N-cyclopropyl-S-methyl-sulfonimidoyl)benzamide]

Continued, compound first:

Structure (SMILES)	IC50 [1] [nM]	IC50 [2] [nM]
CS(=N)(=O)c1ccc2sc(C(=O)Nc3cc(-c4ccc(F)cc4)ccc3N)cc2n1 (stereo not drawn) [Compound 254, N-[2-amino-5-(4-fluorophenyl)phenyl]-5-(methylsulfonimidoyl)thieno[3,2-b]pyridine-2-carboxamide]	100 to 500	< 100
CCN=S(C)(=O)c1ccc2oc(C(=O)Nc3cc(-c4ccc(F)cc4)ccc3N)cc2c1 (stereo not drawn) [Compound 237, N-[2-amino-5-(4-fluorophenyl)phenyl]-5-(N-ethyl-S-methyl-sulfonimidoyl)benzofuran-2-carboxamide]	500 to 2000	< 100
CS(=N)(=O)Cc1ccc(C(=O)Nc2cc(-c3cccs3)ccc2N)cc1 (stereo not drawn) [Compound 128, N-[2-amino-5-(2-thienyl)phenyl]-4-[(methylsulfonimidoyl)methyl]benzamide]	500 to 2000	< 100
CS(=O)(=NC1CC1)c1ccc2oc(C(=O)Nc3cc(-c4ccc(F)cc4)ccc3N)cc2c1 (stereo not drawn) [Compound 230, N-[2-amino-5-(4-fluorophenyl)phenyl]-5-(N-cyclopropyl-S-methyl-sulfonimidoyl)benzofuran-2-carboxamide]	500 to 2000	< 100
CS(=N)(=O)c1cc2sc(C(=O)Nc3cc(-c4ccc(F)cc4)ccc3N)cc2cn1 (stereo not drawn) [Compound 253, N-[2-amino-5-(4-fluorophenyl)phenyl]-6-(methylsulfonimidoyl)thieno[3,2-c]pyridine-2-carboxamide]	500 to 2000	< 100
N=S(=O)(c1ccc(C(=O)Nc2cc(-c3ccc(F)s3)ccc2N)cc1)C1CC1 (racemic) [Compound 127, rac-N-[2-amino-5-(5-fluoro-2-thienyl)phenyl]-4-(cyclopropylsulfonimidoyl)benzamide]	500 to 2000	< 100
N=[S@@](=O)(c1ccc(C(=O)Nc2cc(-c3cccs3)ccc2N)cc1)C1CC1 (single isomer, unassigned) [Compound 115]	500 to 2000	< 100
N=S(=O)(c1ccc(C(=O)Nc2cc(-c3ccc(F)cc3)ccc2N)cc1)c1cncc(CO)c1 (stereo not drawn) [Compound 250, N-(4-amino-4′-fluoro-[1,1′-biphenyl]-3-yl)-4-(5-(hydroxymethyl)pyridine-3-sulfonimidoyl)benzamide]	500 to 2000	< 100
CS(=N)(=O)c1ccc(C(=O)Nc2cc(-c3ccccn3)ccc2N)cc1 (stereo not drawn) [Compound 119, N-[2-amino-5-(2-pyridyl)phenyl]-4-(methylsulfonimidoyl)benzamide]	> 2000	100 to 500
Cc1cnc(S(=N)(=O)c2ccc(C(=O)Nc3cc(-c4ccc(F)cc4)ccc3N)cc2)[nH]1 (stereo not drawn) [Compound 228, N-[2-amino-5-(4-fluorophenyl)phenyl]-4-[(5-methyl-1H-imidazol-2-yl)sulfonimidoyl]benzamide]	100 to 500	< 100
CS(=N)(=O)c1ccc(C(=O)Nc2cc(-c3ccc(F)cc3)ccc2N)cn1 (stereo not drawn) [Compound 129, N-[2-amino-5-(4-fluorophenyl)phenyl]-6-(methylsulfonimidoyl)pyridine-3-carboxamide]	500 to 2000	< 100
N=[S@](=O)(c1ccc(C(=O)Nc2cc(-c3ccc(F)s3)ccc2N)cc1)C1CC1 (single isomer, unassigned) [Compound 131]	500 to 2000	< 100
CS(=N)(=O)c1ccc2oc(C(=O)Nc3cc(-c4cccs4)ccc3N)cc2c1 (stereo not drawn) [Compound 143, N-[2-amino-5-(2-thienyl)phenyl]-5-(methylsulfonimidoyl)benzofuran-2-carboxamide]	500 to 2000	< 100
COc1ncc(S(=N)(=O)c2ccc(C(=O)Nc3cc(-c4ccc(F)cc4)ccc3N)cc2)cn1 (stereo not drawn) [Compound 218, N-[2-amino-5-(4-fluorophenyl)phenyl]-4-[(2-methoxypyrimidin-5-yl)sulfonimidoyl]benzamide]	500 to 2000	< 100
